Like-named read-outs stand apart in the source and are kept apart here.
Legend:
LTA4H [1] = molecular target: T1, LTA4H (Homo sapiens, UniProt P09960); assay: 5-LOX product formation from intact PMNs: LTB4 (cellular activity of LTA4H); assay type: cell-based; details: for inhibition of LTA4H (LTB4 production) in PMNs with exogenous AA: 10 µM inhibitor, 0–20 µM AA
T1 sequence (P09960 1-611): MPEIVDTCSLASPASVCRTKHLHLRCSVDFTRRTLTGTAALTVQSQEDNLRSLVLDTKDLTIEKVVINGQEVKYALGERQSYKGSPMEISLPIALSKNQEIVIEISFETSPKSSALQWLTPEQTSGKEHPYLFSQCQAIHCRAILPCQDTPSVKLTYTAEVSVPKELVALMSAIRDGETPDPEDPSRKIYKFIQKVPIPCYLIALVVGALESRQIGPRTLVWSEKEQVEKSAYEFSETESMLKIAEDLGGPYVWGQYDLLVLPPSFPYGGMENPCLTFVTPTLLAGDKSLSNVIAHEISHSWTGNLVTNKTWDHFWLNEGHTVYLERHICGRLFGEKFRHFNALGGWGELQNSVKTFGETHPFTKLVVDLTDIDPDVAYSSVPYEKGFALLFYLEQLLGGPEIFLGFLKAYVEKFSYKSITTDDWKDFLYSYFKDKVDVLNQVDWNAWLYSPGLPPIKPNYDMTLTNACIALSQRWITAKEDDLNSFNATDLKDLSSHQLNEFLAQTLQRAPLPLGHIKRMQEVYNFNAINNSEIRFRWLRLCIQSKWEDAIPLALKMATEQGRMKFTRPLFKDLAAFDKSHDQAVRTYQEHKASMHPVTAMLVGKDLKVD
Protocol: Human primary leukocytes were isolated from peripheral blood of healthy adult volunteers provided by the Institute of Transfusion Medicine at the University Hospital Greifswald as described before. All methods were performed in accordance with the Declaration of Helsinki. In brief, erythrocytes were removed by dextran sedimentation and leukocytes were separated by the density gradient centrifugation on a lymphocyte separation medium (Histopaque®-1077, Merck, Darmstadt, Germany). The remaining erythrocytes were removed by hypotonic lysis using water, and resulting polymorphonuclear neutrophils (PMNs) were resuspended in PBS containing 0.1% (w/v) glucose (PG buffer) or PG buffer with 1 mM CaCl2 (PGC buffer) as indicated. Resulting peripheral blood mononuclear cells (PBMC), including monocytes, were seeded in the RPMI 1640 medium supplemented with 10% (v/v) FCS, 100 U/mL penicillin, 100 µg/mL streptomycin and 2 mM L-glutamine in cell culture flasks (Greiner Bio-one, Frickenhausen, Germany) for 1.5 h at 37 °C and 5% CO2. Adherent monocytes were washed twice with PBS and were finally resuspended in the RPMI 1640 medium as described before.
PMNs (5 × 10^6 cells/mL) were diluted in PGC buffer and pre-incubated with the vehicle (0.1%; v/v) or compounds for 10 min at 37 °C prior to the stimulation with 2.5 µM A23187. After 10 min at 37 °C, treatments were stopped on ice with an equal volume of ice-cold methanol. Next, 530 µL acidified PBS containing 200 ng PGB1 as an internal standard were added to the sample followed by the solid phase extraction with on a RP18 column. […] Formed 5-LOX metabolites were analyzed as described previously.

LTA4H [2] = molecular target: T1, LTA4H; assay: Epoxide hydrolase inhibition assay with recombinant LTA4H (LTA4 to LTB4); assay type: biochemical; parameters: made in house; host or cells: Escherichia coli JM101; details: epoxide hydrolase activity, 10-40 μM LTA4, competitive inhibition model
From the text: Human recombinant LTA4H was expressed in Escherichia coli JM101 strain and purified as described previously. In short, supernatant of lysed cells was loaded on a nickel affinity column followed by the purification steps with the Mono Q 5/50 and Superdex HiLoad 16/600 columns (Cytiva, Uppsala, Sweden). Protein purity was checked by sodium dodecyl-sulfate polyacrylamide gel electrophoresis (SDS-PAGE)(XCell SureLock Mini-Cell Electrophoresis System and PowerEase 300W Power Supply) with a NuPAGE Bis-Tris 4–12% gels (Invitrogen, Waltham, MA, USA) after every purification step.
Purified LTA4H (3 μg) was pre-incubated with 0–50 μM inhibitors on ice for 3 min and the epoxide hydrolase reaction was carried out with 10 μM, 20 μM or 40 μM LTA4 for 15 s in 100 μL 25 mM Tris-HCl pH 7.8 at room temperature. The incubation was stopped by addition of 2 vol of methanol, containing 300 pmol PGB2 (ε ~ 26,000 M^−1 cm^−1; λmax = 280 nm) as an internal standard, and followed by 1 vol of distilled water. […] The formation of LTB4 (ε ~ 50,000 M^−1 cm^−1) was determined at 270 nm. The Ki value for each inhibitor was calculated using the competitive inhibition model in the GraphPad Prism 9 program.

[3] = A23187-activated intact PMNs, LTB4 formation, read-out: IC50 on the activity of LTA4H (LTB4) in PMNs

Compound	inhibition of LTA4H (LTB4 production) in PMNs with exogenous AA (LTA4H [1])	IC50 (LTA4H [1]; [3]) [nM]	Ki (LTA4H [2]) [nM]	IC50 (LTA4H [1]) [nM]
Nc1nc(-c2ccc(Cc3ccccc3)cc2)cs1 [ARM1, 4-(4-benzylphenyl) thiazol-2-amine, reference compound]	almost complete	600	1500	
Nc1nc(-c2ccc(Cc3ccccc3)cc2)co1 [TTO, 4-(4-benzylphenyl) oxazol-2-amine]	higher production of LTB4	800	3800	
Nc1nc(-c2ccc(Cc3ccccc3)cc2)c[se]1 [TTSe, 4-(4-benzylphenyl) selenazol-2-amine]	almost complete		4800	800
